Measured values published in patent US4183929A, “Tri-substituted triazines” (American Cyanamid Company, priority 1978, dated 1980).

Legend:
[1] = system: citrated sheep plasma (CSP); test: In vitro anti-coagulant activity (AC) test; type: biochemical; conditions: for AC Wells: Table I, twofold serial dilution, recalcified citrated sheep plasma; for In Vitro Activity Anti-Coagulant Activity (Wells) AC: Table II
Procedure: The sheep RBC's, kept in suspension throughout the slotting incubation time, become enmeshed in the fibrin matrix if a clot forms. Upon centrifugation of the plate, untrapped RBC's form buttons, the sizes of which correspond to the degree of clot inhibition; this providing a measure of anti-coagulant activity (AC).

[2] = system: late components of human complement (C3-C9); test: Test, Code 035 (C3-C9 inhibitor), lysis of EAC 142; type: biochemical; conditions: Table I; twofold serial dilution
Description: (§1) An active inhibitor protects C2 from C1 and C4; (ii) Test, Code 035 (C3-C9 inhibitor) - This test determines the ability of the late components of human complement (C3-C9) to lyse EAC 142 in the presence of appropriate dilutions of the test compound. An active inhibitor protects EAC 142 from lysis by human C3-C9; (iii) Test, Code 036 (C-Shunt inhibitor) - In this test human erythrocytes rendered fragile are lysed in autologous serum via the shunt pathway activated by cobra venom factor in the presence of appropriate dilutions of the test compound. Inhibition of the shunt pathway results in failure of lysis; (iv) Forssman Vasculitis Test - Here, the well known complement dependent lesion, Forssman vasculitis, is produced in guinea pigs by intradermal injection of rabbit anti-Forssman antiserum. The lesion is measured in terms of diameter, edema and hemorrhage and the extent to which a combined index of these is inhibited by prior intraperitoneal injection of the test compound at 200 mg is then reported, unless otherwise stated; (v) Forssman Shock Test--Lethal shock is produced in guinea pigs by an i.v. injection of anti-Forssman antiserum and the harmonic mean death time of treated guinea pigs is compared with that of simultaneous controls; (vi) Complement Level Reduction Test - In this test, the above dosed guinea pigs, or others, are bled for serum and the complement level is determined in undiluted serum by the capillary tube method of U.S. Pat. No. 3,876,376 and compared to undosed control guinea pigs; and (vii) Cap 50 Test - Here, appropriate amounts of the test compound are added to a pool of guinea pig serum in vitro, after which the undiluted serum capillary tube assay referred to above is run. The concentration of compound inhibiting 50% is reported.

shunt pathway = test: Test, Code 036 (C-Shunt inhibitor), lysis of human erythrocytes via cobra venom factor activated shunt pathway; type: cell-based; conditions: Table I; twofold serial dilution
Description: An active inhibitor protects C2 from C1 and C4; (ii) Test, Code 035 (C3-C9 inhibitor) - This test determines the ability of the late components of human complement (C3-C9) to lyse EAC 142 in the presence of appropriate dilutions of the test compound. An active inhibitor protects EAC 142 from lysis by human C3-C9; (iii) Test, Code 036 (C-Shunt inhibitor) - In this test human erythrocytes rendered fragile are lysed in autologous serum via the shunt pathway activated by cobra venom factor in the presence of appropriate dilutions of the test compound. Inhibition of the shunt pathway results in failure of lysis; (iv) Forssman Vasculitis Test - Here, the well known complement dependent lesion, Forssman vasculitis, is produced in guinea pigs by intradermal injection of rabbit anti-Forssman antiserum. […]

[3] = Intrinsic Therapeutic Index (ITI) from Code 026 and AC wells; conditions: Table II; for Logarithmic Difference Expressed As Wells: Code 026 wells minus AC wells (base 2); for Intrinsic Therapeutic Index: antilogarithm (base 2) of the difference of Code 026 and AC wells
Description: The computation of an Intrinsic Therapeutic Index (ITI) was devised to correlate the results expressed in wells obtained in the in vitro Code 026 (C1 inhibitor) test and the in vitro anti-coagulant (AC) test into a meaningful value which would aid in the net evaluation of the activity of the compounds of this invention.
The ITI is thus a measure of the separation of anti-complement and anti-coagulant activities; the higher the numerical value the more therapeutically useful the separation of activities.

activated human C1 = target: T1, activated human C1 (Homo sapiens, UniProt P09871); test: Test, Code 026 (C1 inhibitor); type: biochemical; conditions: for Cl 026 Wells: Table I, twofold serial dilution, higher well number indicates higher activity; for In Vitro Activity Complment Inhibiting Activity (Wells) Code 026: Table II
T1 construct: fluid-phase human C2 consumption with C4 present
T1 sequence (P09871 16-688): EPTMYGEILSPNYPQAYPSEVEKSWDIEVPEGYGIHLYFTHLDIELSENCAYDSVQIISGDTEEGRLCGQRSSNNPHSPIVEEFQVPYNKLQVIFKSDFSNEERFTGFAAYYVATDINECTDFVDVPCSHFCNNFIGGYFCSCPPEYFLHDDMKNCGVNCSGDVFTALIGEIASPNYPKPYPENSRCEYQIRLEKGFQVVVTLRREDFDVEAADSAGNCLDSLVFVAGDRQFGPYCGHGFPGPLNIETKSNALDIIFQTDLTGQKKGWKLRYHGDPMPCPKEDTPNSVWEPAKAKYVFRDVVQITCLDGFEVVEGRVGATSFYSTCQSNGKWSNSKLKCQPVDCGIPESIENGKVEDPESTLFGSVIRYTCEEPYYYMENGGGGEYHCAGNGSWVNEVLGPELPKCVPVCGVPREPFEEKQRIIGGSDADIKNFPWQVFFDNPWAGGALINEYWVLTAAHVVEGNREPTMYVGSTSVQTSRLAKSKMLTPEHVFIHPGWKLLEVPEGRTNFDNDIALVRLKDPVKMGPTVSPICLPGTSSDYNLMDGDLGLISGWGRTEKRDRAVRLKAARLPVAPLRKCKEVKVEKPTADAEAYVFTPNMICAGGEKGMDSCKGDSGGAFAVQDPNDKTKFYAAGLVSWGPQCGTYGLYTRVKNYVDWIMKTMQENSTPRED
T1 sequence (P00736 18-705 partner): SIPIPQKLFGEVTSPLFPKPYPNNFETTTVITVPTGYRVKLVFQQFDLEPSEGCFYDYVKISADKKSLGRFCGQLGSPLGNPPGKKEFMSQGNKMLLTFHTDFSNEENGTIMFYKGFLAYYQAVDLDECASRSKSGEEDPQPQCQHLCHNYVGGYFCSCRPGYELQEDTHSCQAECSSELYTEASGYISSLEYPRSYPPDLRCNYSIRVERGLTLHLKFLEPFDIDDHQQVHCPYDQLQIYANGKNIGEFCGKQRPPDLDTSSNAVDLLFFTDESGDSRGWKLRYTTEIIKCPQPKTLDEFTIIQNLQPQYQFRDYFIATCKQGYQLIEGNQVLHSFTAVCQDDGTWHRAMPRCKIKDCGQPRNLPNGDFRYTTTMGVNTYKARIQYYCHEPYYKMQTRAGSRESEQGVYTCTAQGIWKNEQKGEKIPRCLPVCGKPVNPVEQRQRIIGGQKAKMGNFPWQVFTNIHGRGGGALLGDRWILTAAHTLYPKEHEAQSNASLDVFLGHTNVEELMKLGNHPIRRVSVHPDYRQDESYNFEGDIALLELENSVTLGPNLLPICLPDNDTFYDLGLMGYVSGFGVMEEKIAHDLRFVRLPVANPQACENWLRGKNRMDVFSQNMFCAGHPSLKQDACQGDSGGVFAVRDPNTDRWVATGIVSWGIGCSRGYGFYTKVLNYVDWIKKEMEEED
T1 sequence (P02745 23-245 partner): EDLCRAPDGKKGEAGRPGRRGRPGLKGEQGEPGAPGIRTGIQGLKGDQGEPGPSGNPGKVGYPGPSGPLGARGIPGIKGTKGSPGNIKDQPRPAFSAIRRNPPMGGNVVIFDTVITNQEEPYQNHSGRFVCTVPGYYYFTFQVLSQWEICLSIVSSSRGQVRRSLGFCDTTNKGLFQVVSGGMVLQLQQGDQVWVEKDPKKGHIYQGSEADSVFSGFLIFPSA
T1 sequence (P02746 28-253 partner): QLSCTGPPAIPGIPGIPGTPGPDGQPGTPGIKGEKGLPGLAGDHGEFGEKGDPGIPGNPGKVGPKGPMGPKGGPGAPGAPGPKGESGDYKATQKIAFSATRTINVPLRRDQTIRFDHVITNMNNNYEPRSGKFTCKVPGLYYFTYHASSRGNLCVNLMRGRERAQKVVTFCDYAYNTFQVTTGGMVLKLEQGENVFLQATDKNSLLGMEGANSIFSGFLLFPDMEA
T1 sequence (P02747 29-245 partner): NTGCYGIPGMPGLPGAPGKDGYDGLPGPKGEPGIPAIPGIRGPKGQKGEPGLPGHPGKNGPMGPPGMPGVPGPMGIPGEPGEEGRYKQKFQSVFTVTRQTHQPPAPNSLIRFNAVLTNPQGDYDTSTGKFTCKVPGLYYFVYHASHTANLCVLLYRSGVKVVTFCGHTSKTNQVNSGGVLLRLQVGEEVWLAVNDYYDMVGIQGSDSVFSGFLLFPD
Description: as §1

SMILES | AC Wells [1] | In Vitro Activity Anti-Coagulant Activity (Wells) AC [1] | C-Late 035 Wells [2] | Shunt Inhibition 036 Wells (shunt pathway) | Logarithmic Difference Expressed As Wells [3] | Intrinsic Therapeutic Index [3] | Cl 026 Wells (activated human C1) | In Vitro Activity Complment Inhibiting Activity (Wells) Code 026 (activated human C1)
O=C([O-])c1cc(Nc2nc(Nc3cc(C(=O)[O-])cc(C(=O)[O-])c3)nc(Nc3cc(C(=O)[O-])cc(C(=O)[O-])c3)n2)cc(C(=O)[O-])c1.[Na+].[Na+].[Na+].[Na+].[Na+].[Na+] [5,5',5"-(s-Triazine-2,4,6-triyltriimino)triisophthalic acid hexasodium salt] | -2 Wells | -2 Wells | N | – | – | – | – | –
O=C([O-])c1cc(Nc2nc(Cl)nc(Nc3cc(C(=O)[O-])cc(C(=O)[O-])c3)n2)cc(C(=O)[O-])c1.[Na+].[Na+].[Na+].[Na+] [5,5'-[(6-Chloro-s-triazine-2,4-diyl)diimino]-diisophthalic acid tetrasodium salt] | < -2 Wells | -2 Wells | N | N | +5 Wells | 32 | +3 Wells | +3 Wells
O=C(O)CN(CC(=O)O)c1nc(N(CC(=O)O)CC(=O)O)nc(N(CC(=O)O)CC(=O)O)n1 [(s-Triazine-2,4,6-triyltrinitrilo)hexaacetic acid] | -2 Wells | -2 Wells | N | N | +5 Wells | 32 | +3 Wells | +3 Wells
